Structures can show the parent of a compound that is named as a salt.
Assays:
[1] = per 1 g of substance, crystallization as in U.S. Pat. No. 3,843,668
[2] = per 1 g of substance, crystallization as in EP 644 192

| volume of methanol needed for dissolution of 1 g [1] | volume of ethanol needed for dissolution of 1 g [2] | SMILES |
| --- | --- | --- |
| at least 37 ml |  | Clc1ccc2nsnc2c1NC1=NCCN1 [tizanidine base, 5-chloro-4-(2-imidazolin-2-yl-amino)-2,1,3-benzothiadiazole] |
|  | at least 43 ml | Clc1ccc2nsnc2c1NC1=NCCN1 [tizanidine hydrochloride] |

Reference: patent US8487113B2, “Method for the preparation of tizanidine hydrochloride” (Farmak, A.S., priority 2008, dated 2013)
